Experimental data reported in article PMC9228987, “Antiproliferative Activity of a New Quinazolin-4(3H)-One Derivative via Targeting Aurora Kinase A in Non-Small Cell Lung Cancer” (Pharmaceuticals, 2022).

Assays:
H1975 cells [1] = test: Colony formation assay; type: cell-based, human; conditions: treated 48 h, additional ten days without compound
Protocol: Cells (500 cells/well) were seeded and cultured overnight. The compounds were treated for 48 h, the cells were washed with phosphate buffered saline (PBS), and continued incubation. Culture medium was replaced every three days for ten days. Cells were fixed with 4% paraformaldehyde solution and stained with 0.1% crystal violet.

[2] = biological target: T1, Recombinant human aurora A protein (Homo sapiens, UniProt O14965); test: Cell-free aurora kinase assay (ADP-Glo); type: biochemical; conditions: myelin basic protein substrate, read-out: Aurora Kinase A Inhibition (IC50)
T1 construct: purchased Abcam ab271368
T1 sequence (O14965 1-403): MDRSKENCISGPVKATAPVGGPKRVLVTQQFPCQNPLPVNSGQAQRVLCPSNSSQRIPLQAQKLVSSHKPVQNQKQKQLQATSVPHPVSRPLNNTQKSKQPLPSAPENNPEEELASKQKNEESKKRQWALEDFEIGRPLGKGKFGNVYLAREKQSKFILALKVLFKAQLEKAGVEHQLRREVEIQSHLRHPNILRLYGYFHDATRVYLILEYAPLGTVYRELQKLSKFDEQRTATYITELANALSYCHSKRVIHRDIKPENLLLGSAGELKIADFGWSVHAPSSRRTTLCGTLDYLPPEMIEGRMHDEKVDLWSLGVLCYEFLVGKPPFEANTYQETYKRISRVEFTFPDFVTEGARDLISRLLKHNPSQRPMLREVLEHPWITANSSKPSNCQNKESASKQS
Protocol: (§1) Aurora A kinase activity was measured using an ADP-Glo™ Kinase assay kit (Promega, USA, Catalog No. # PAV9101). Recombinant human aurora A protein (Active) (ab271368) and Recombinant human aurora B protein (Active) (ab51435) were purchased from Abcam (United States, Boston, MA). […] The ADP-Glo ^TM reagents and kinase detection buffer and substrates were prepared according to the ADP-Glo™ Kinase Assay kit instructions. Luminescence was measured using a microplate reader.

[3] = biological target: T2, Recombinant human aurora B protein (Homo sapiens, UniProt Q96GD4); test: Cell-free aurora kinase assay (ADP-Glo); type: biochemical; conditions: myelin basic protein substrate, read-out: Aurora Kinase B Inhibition (IC50)
T2 construct: purchased Abcam ab51435
T2 sequence (Q96GD4 whole entry): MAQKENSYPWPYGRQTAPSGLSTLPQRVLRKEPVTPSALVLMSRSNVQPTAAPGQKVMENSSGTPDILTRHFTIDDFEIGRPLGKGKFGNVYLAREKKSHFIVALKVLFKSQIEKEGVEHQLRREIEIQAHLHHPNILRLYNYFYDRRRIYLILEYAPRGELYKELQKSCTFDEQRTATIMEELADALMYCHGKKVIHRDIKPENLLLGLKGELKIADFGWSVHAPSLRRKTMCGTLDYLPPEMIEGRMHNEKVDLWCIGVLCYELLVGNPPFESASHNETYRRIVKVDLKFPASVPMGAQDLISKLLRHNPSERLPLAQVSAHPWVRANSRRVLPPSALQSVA
Protocol: as §1

p-aurora kinase A (T288) = test: Western blotting of phospho-aurora kinase A in H1975 cells; type: cell-based, human; conditions: 24 h
From the text: (§2) The cells were collected and lysed in sample loading buffer (Bio-Rad, Hercules, CA, USA). Total protein concentrations were quantified using a BCA Protein Assay Kit (Thermo Fisher Scientific, Waltham, MA, USA). Quantified proteins were loaded onto SDS-polyacrylamide gels and separated by molecular weight via electrophoresis (PAGE). Then, proteins were transferred to polyvinylidene fluoride membranes (Millipore, Bedford, MA, USA); 5% BSA in Tris-buffered saline containing 0.1% Tween-20 (TBST) was used for blocking. The membranes were blocked for 30 min at room temperature with mild shaking, then incubated with antibodies diluted in 2.5% BSA in TBST overnight at 4 °C with mild shaking. Following secondary antibody incubation and washing with TBST, the chemiluminescence signals were detected using the WEST-Queen detection system (iNtRON Biotechnology, Seongnam, Korea) and LAS-4000 (Fuji Film Corp., Tokyo, Japan).

H1975 cells [4] = test: Cell cycle analysis (PI staining, flow cytometry); type: cell-based, human; conditions: for Sub-G1 cell population: 72 h (Figure 5A)
Protocol: Cells were seeded and starved in serum-free medium overnight. After starvation, the cells were treated with compounds for the indicated times. After incubation, cells were harvested, washed with PBS, and fixed with 70% ethanol in PBS overnight at −20 °C. The fixed cells were washed with PBS, resuspended in 100 µg/mL of RNase A for 30 min at room temperature, and stained with 50 µg/mL PI. Fluorescence intensity was analyzed using a FACSCalibur flow cytometer (BD Biosciences, San Jose, CA, USA) and BD CellQuest^TM Pro version 6.0 software (BD Biosciences, San Jose, CA, USA).

H1975 cells [5] = test: Annexin V-FITC/PI double staining (flow cytometry); type: cell-based, human
Protocol: Cells were treated with samples for 72 h and stained with an Annexin V-FITC apoptosis detection kit (BD Biosciences, San Jose, CA, USA) according to the manufacturer’s instructions. Briefly, cells were collected after 72 h treatment, washed with PBS, resuspended in 1× binding buffer, and stained with Annexin V-FITC and PI in the dark for 15 min. After incubation, the cells were diluted with 1× binding buffer and analyzed using an FACSCalibur flow cytometer (BD Biosciences, San Jose, CA, USA) and BD CellQuest^TM Pro version 6.0 software (BD Biosciences, San Jose, CA, USA).

[6] = system: cdc25C, cdc2, and p21 proteins; test: Western blotting of cell cycle regulators in H1975 cells; type: cell-based, human; conditions: H1975, 24 h
From the text: as §2

[7] = system: cleaved PARP, PARP, cleaved caspase-8, and caspase-8 proteins; test: Western blotting of apoptosis-related proteins in H1975 cells; type: cell-based, human; conditions: H1975, 72 h, concentration-dependent
From the text: as §2

HCC827 cells = test: SRB cell proliferation assay; conditions: Homo sapiens, HCC827, 72 h, read-out: IC50 value, HCC827
Protocol: (§3) The human non-small lung cancer cell lines A549, NCI-H1975, NCI-H1299, and NCI-H1993 were purchased from the American Type Culture Collection (Manassas, VA, USA). The human non-small cell lung cancer cell lines HCC827, PC9, HCC827-gef and PC9-gef were a kind gift from Dr. Jae Cheol Lee and Dr. Jin Kyung Rho (Asan Medical Center, Seoul, Korea). […] Cells were incubated at 37 °C in a humidified atmosphere with 5% CO2.
(§4) Cell viability was measured using the SRB method as described previously [58]. Briefly, cells were seeded with different concentrations of compounds and incubated for 72 h. After 72 h incubation, cells were fixed with 10% TCA for 30 min at 4 °C and stained with 0.4% (w/v) SRB in 1% acetic acid for 2 h at room temperature.

PC9 cells = test: SRB cell proliferation assay; conditions: Homo sapiens, PC-9, 72 h, read-out: IC50 value, PC9
Protocol: as §3, §4

HCC827-gef cells = test: SRB cell proliferation assay; conditions: Homo sapiens, 72 h, read-out: IC50 value, HCC827-gef
Protocol: as §3, §4

PC9-gef cells = test: SRB cell proliferation assay; conditions: Homo sapiens, 72 h, read-out: IC50 value, PC9-gef
Protocol: as §3, §4

H1975 cells [8] = test: SRB cell proliferation assay; conditions: Homo sapiens, NCI-H1975, 72 h, read-out: IC50 value, H1975
Protocol: as §3, §4

H1299 cells = test: SRB cell proliferation assay; conditions: Homo sapiens, NCI-H1299, 72 h, read-out: IC50 value, H1299
Protocol: as §3, §4

H1993 cells = test: SRB cell proliferation assay; conditions: Homo sapiens, NCI-H1993, 72 h, read-out: IC50 value, H1993
Protocol: as §3, §4

A549 cells = test: SRB cell proliferation assay; conditions: Homo sapiens, A549, 72 h, read-out: IC50 value, A549
Protocol: as §3, §4

Row | IC50 (HCC827 cells) | IC50 (PC9 cells) | IC50 (HCC827-gef cells) | IC50 (PC9-gef cells) | IC50 (H1975 cells [8]) | IC50 (H1299 cells) | IC50 (H1993 cells) | IC50 (A549 cells) | Structure (SMILES) | also measured
1 | 4.84 ± 0.17 µM | 16.4 ± 1.44 µM | 4.43 ± 0.35 µM | 9.21 ± 0.51 µM | 4.76 ± 0.17 µM | 5.3 ± 0.06 µM | 5.5 ± 1.69 µM | 3.63 ± 0.28 µM | CCOC(=O)c1cn2cc(-c3ccc4ncn(Cc5ncccn5)c(=O)c4c3)ccc2n1 [BIQO-19, ethyl 6-(4-oxo-3-(pyrimidin-2-ylmethyl)-3,4-dihydroquinazolin-6-yl)imidazo [1,2-a]pyridine-2-carboxylate] | colony formation in H1975 cells (H1975 cells [1]): significant inhibition of colony formation; IC50 [2]: 0.0685 ± 0.00645 µM; IC50 [3]: 0.581 ± 0.0138 µM; levels of p-aurora kinase A (T288) expression (p-aurora kinase A (T288)): suppressed by BIQO-19 treatment in a concentration-dependent manner; Sub-G1 cell population (H1975 cells [4]; H1975, 1 μM): 2.54%; Sub-G1 cell population (H1975 cells [4]; H1975, 2 μM): 2.60%; G2/M cell population (H1975 cells [4]; H1975, 4 μM, 12 h (Figure 4A)): 35.3%; G2/M cell population (H1975 cells [4]; H1975, 4 μM, 24 h (Figure 4A)): 52.0%; Sub-G1 cell population (H1975 cells [4]; H1975, 4 μM): 15.5%; total cell deaths (early apoptosis + late apoptosis + necrosis) (H1975 cells [5]; H1975, 4 μM, 72 h (Figure 5B,C)): 26.67%; early apoptosis fraction (H1975 cells [5]; H1975, 72 h, single vs combination treatment (Figure 6C)): 17.6%; total cell death (H1975 cells [5]; H1975, 72 h, single vs combination treatment (Figure 6D)): 27.1%; cdc25C and cdc2 expression [6]: effectively downregulated; p21 expression [6]: upregulated; expression levels of PARP and caspase-8 (inactivated forms) [7]: downregulated; expression levels of cleaved PARP and cleaved caspase-8 (activated forms) [7]: upregulated
2 | 4.14 ± 0.64 µM | 15 ± 1.41 µM | 6.4 ± 0.6 µM | 6.75 ± 0.71 µM | 2.81 ± 0.43 µM | 5.54 ± 0.85 µM | 4.57 ± 0.29 µM | 6.11 ± 1.14 µM | CCC(=O)Nc1nc2ccc(-c3ccc4ncn(CCc5cc6ccccc6[nH]5)c(=O)c4c3)cc2[nH]1 [FL-4, reference compound] | 
